Source: patent publication US20180243290A1, “MORPHINAN COMPOUNDS FOR TREATING AGITATION” (Concert Pharmaceuticals, Inc., priority 2015, published 2018)

Columns and labels:
[1] = Metabolic stability in extensive metabolizer human liver microsomes with and without quinidine; type: in vitro ADME; conditions: for CLint scaled at 100 ng/mL / half-life at 100 ng/mL: human; for CLint scaled at 100 ng/mL / % Δ (D6-Dimemorfan/Dimemorfan) of t1/2 / Clint, app Ratio (D6-Dimemorfan/Dimemorfan) / Clint, app Ratio (respective to 0 concentration of Quinidine) / t1/2 Ratio (respective to 0 concentration of Quinidine): EM HLM; for half-life at 100 ng/mL: EM HLM 1.0 mg/mL, 100 ng/mL test compound, 60 min
Procedure: Individual donor with extensive metabolizer human liver microsomes (EM HLM) (20 mg/mL) with CYP2D6 activity of 957±19 pmol/mg protein/min, genotyped for CYP2D6 allelic variant-CYP2D6*1/*2x2, were obtained from Xenotech, LLC (Lenexa, Kans.). β-nicotinamide adenine dinucleotide phosphate, reduced form (NADPH), magnesium chloride (MgCl2), dimethyl sulfoxide (DMSO), acetonitrile (ACN), quinidine, and dextromethorphan (DM) were purchased from Sigma-Aldrich. Dimemorfan and d6-dimemorfan (Compound 100) were synthesized by Adesis, Inc.
1.0 mg/mL stock solutions of test compounds dextromethorphan (DM), dimemorfan, and d6-dimemorfan (Compound 100) were prepared in DMSO. The 1.0 mg/mL stock solutions were diluted to 10,000 ng/mL in acetonitrile (ACN). A 10 mM stock solution of quinidine was prepared in acetonitrile, which was then diluted further in acetonitrile to produce 20 μM, 10 μM, 5 μM, 2.5 μM, and 1.25 μM solutions of quinidine. The human liver microsomes were diluted to 1.25 mg/mL in 0.1 M potassium phosphate buffer, pH 7.4, containing 3 mM MgCl2. The diluted microsomes were added to wells of a 96-well deep-well polypropylene plate in triplicate. A 5 μL aliquot of each 10,000 ng/mL test compound was added to the microsomes, and the mixture was pre-warmed at 37° C. for 7 minutes, then a 5 μL aliquot of each quinidine solution was added (except in control wells where no quinidine was added). Reactions were initiated by addition of pre-warmed NADPH solution to the mixture. The final reaction volume was 0.5 mL and contained 1.0 mg/mL human liver microsomes, 100 ng/mL of test compound, 0.2, 0.1, 0.05, 0.025, 0.0125, or 0 μM of quinidine, and 2 mM NADPH in 0.1 M potassium phosphate buffer, pH 7.4, and 3 mM MgCl2. The reaction mixtures were incubated at 37° C., and 50 μL aliquots were removed at 0, 15, 30, and 60 minutes and added to shallow-well 96-well plates which contained 50 μL of ice-cold ACN with internal standard to stop the reactions. The plates were stored at 4° C. for 20 minutes after which 100 μL of water was added to the wells of the plate before centrifugation to pellet precipitated proteins. Supernatants were transferred to another 96-well plate and analyzed for amounts of parent remaining by LC-MS/MS using an Applied Bio-systems mass spectrometer. Amount of parent remaining was quantified via standard curve.
The in vitro till's for test compounds were calculated from the slopes of the linear regression of % parent remaining (1n) vs. incubation time relationship.
k=−[slope of linear regression of % parent remaining(ln) vs incubation time]
The apparent intrinsic clearance was calculated using the following equation:
CLint (mL/min/kg)=(0.693/in vitro t1/2) (Incubation Volume/mg of microsomes) • (45 mg microsomes/gram of liver) (20 gm of liver/kg b.w.)
Data analysis was performed using Microsoft Excel Software.

[2] = healthy human males; cited from earlier work
[3] = pH 7.4, with none (quinidine 0 µM, control), quinidine 0 μM
[4] = pH 7.4, with quinidine 0.0125 µM, quinidine 0.0125 μM
[5] = pH 7.4, with quinidine 0.025 µM, quinidine 0.025 μM
[6] = pH 7.4, with quinidine 0.05 µM, quinidine 0.05 μM
[7] = pH 7.4, with quinidine 0.1 µM, quinidine 0.1 μM
[8] = pH 7.4, with quinidine 0.2 µM, quinidine 0.2 μM

SMILES | CLint scaled at 100 ng/mL [1, 3] [L/h/kg] | half-life at 100 ng/mL [1, 3] [min] | CLint scaled at 100 ng/mL [1, 4] [L/h/kg] | half-life at 100 ng/mL [1, 4] [min] | CLint scaled at 100 ng/mL [1, 5] [L/h/kg] | half-life at 100 ng/mL [1, 5] [min] | CLint scaled at 100 ng/mL [1, 6] [L/h/kg] | half-life at 100 ng/mL [1, 6] [min] | CLint scaled at 100 ng/mL [1, 7] [L/h/kg] | half-life at 100 ng/mL [1, 7] [min] | CLint scaled at 100 ng/mL [1, 8] [L/h/kg] | half-life at 100 ng/mL [1, 8] [min] | Clint, app Ratio (respective to 0 concentration of Quinidine) ([1]; quinidine 0 μM) | t1/2 Ratio (respective to 0 concentration of Quinidine) ([1]; quinidine 0 μM) | Clint, app Ratio (respective to 0 concentration of Quinidine) ([1]; quinidine 0.0125 μM) | t1/2 Ratio (respective to 0 concentration of Quinidine) ([1]; quinidine 0.0125 μM) | Clint, app Ratio (respective to 0 concentration of Quinidine) ([1]; quinidine 0.025 μM) | t1/2 Ratio (respective to 0 concentration of Quinidine) ([1]; quinidine 0.025 μM) | Clint, app Ratio (respective to 0 concentration of Quinidine) ([1]; quinidine 0.05 μM) | t1/2 Ratio (respective to 0 concentration of Quinidine) ([1]; quinidine 0.05 μM) | other results
[2H]C([2H])([2H])c1ccc2c(c1)[C@]13CCCC[C@@H]1[C@H](C2)N(C([2H])([2H])[2H])CC3 [D6-Dimemorfan] | 2.89 | 6.5 | 1.85 | 10.1 | 1.42 | 13.2 | 1.04 | 18 | 0.6 | 31.1 | 0.492 | 37.9 | 1.0 | 1.0 | 0.64 | 1.6 | 0.49 | 2.0 | 0.36 | 2.8 | % Δ (D6-Dimemorfan/Dimemorfan) of t1/2 ([1]; quinidine 0 μM): 35%; Clint, app Ratio (D6-Dimemorfan/Dimemorfan) ([1]; quinidine 0 μM): 0.74; % Δ (D6-Dimemorfan/Dimemorfan) of t1/2 ([1]; quinidine 0.0125 μM): 59%; Clint, app Ratio (D6-Dimemorfan/Dimemorfan) ([1]; quinidine 0.0125 μM): 0.61; % Δ (D6-Dimemorfan/Dimemorfan) of t1/2 ([1]; quinidine 0.025 μM): 3%; Clint, app Ratio (D6-Dimemorfan/Dimemorfan) ([1]; quinidine 0.025 μM): 0.96; % Δ (D6-Dimemorfan/Dimemorfan) of t1/2 ([1]; quinidine 0.05 μM): 11%; Clint, app Ratio (D6-Dimemorfan/Dimemorfan) ([1]; quinidine 0.05 μM): 0.90; % Δ (D6-Dimemorfan/Dimemorfan) of t1/2 ([1]; quinidine 0.1 μM): 22%; Clint, app Ratio (D6-Dimemorfan/Dimemorfan) ([1]; quinidine 0.1 μM): 0.82; Clint, app Ratio (respective to 0 concentration of Quinidine) ([1]; quinidine 0.1 μM): 0.21; t1/2 Ratio (respective to 0 concentration of Quinidine) ([1]; quinidine 0.1 μM): 4.8; % Δ (D6-Dimemorfan/Dimemorfan) of t1/2 ([1]; quinidine 0.2 μM): −12%; Clint, app Ratio (D6-Dimemorfan/Dimemorfan) ([1]; quinidine 0.2 μM): 1.11; Clint, app Ratio (respective to 0 concentration of Quinidine) ([1]; quinidine 0.2 μM): 0.17; t1/2 Ratio (respective to 0 concentration of Quinidine) ([1]; quinidine 0.2 μM): 5.8
COc1ccc2c(c1)[C@]13CCCC[C@@H]1[C@H](C2)N(C)CC3 [DM, (+)-3-methoxy-17-methyl-(9α,13α,14α)-morphinan] | 0.924 | 20.5 | 0.726 | 25.6 | 0.636 | 29.6 | 0.57 | 33 | 0.444 | 42.1 | 0.288 | 64.5 | 1.0 | 1.0 | 0.79 | 1.2 | 0.69 | 1.4 | 0.62 | 1.6 | Clint, app Ratio (respective to 0 concentration of Quinidine) ([1]; quinidine 0.1 μM): 0.48; t1/2 Ratio (respective to 0 concentration of Quinidine) ([1]; quinidine 0.1 μM): 2.1; Clint, app Ratio (respective to 0 concentration of Quinidine) ([1]; quinidine 0.2 μM): 0.31; t1/2 Ratio (respective to 0 concentration of Quinidine) ([1]; quinidine 0.2 μM): 3.1
Cc1ccc2c(c1)[C@]13CCCC[C@@H]1[C@H](C2)N(C)CC3 [Dimemorfan, (+)-(9α,13α,14α)-3,17-dimethylmorphinan] | 3.89 | 4.81 | 3.05 | 6.34 | 1.48 | 12.8 | 1.16 | 16.2 | 0.732 | 25.5 | 0.444 | 43.1 | 1.0 | 1.0 | 0.78 | 1.3 | 0.38 | 2.7 | 0.30 | 3.4 | Clint, app Ratio (respective to 0 concentration of Quinidine) ([1]; quinidine 0.1 μM): 0.19; t1/2 Ratio (respective to 0 concentration of Quinidine) ([1]; quinidine 0.1 μM): 5.3; Clint, app Ratio (respective to 0 concentration of Quinidine) ([1]; quinidine 0.2 μM): 0.11; t1/2 Ratio (respective to 0 concentration of Quinidine) ([1]; quinidine 0.2 μM): 9.0; fraction of a dose metabolized [2]: Greater than 98%
